# Legend:
# Assay in all cases: relative viability (nuclei count vs DMSO), 5 days (fraction); higher = more cells survive
# 201T = test system: 201T
# Method in brief: (§1)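 Lung cancer cell lines were seeded in 1536-well plates and dosed by pin tool the next day, with either a single drug or a fixed anchor-drug dose combined with five library-drug doses (not always all listed) spaced in √10 steps. Five days later, one step fixed the cells and stained their nuclei (final 0.05% Triton X-100, 1% formaldehyde, 1 ug/ml Hoechst), and nuclei were counted on 4× images. Relative viability is the nuclei count in treated wells divided by the count in vehicle wells, and each value is the median of duplicate plates.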
# ABC-1 = test system: ABC-1
# Method in brief: as §1
# BEN = test system: BEN
# Method in brief: as §1
# CAL-12T = test system: CAL-12T
# Method in brief: as §1
# H3255 = test system: H3255
# Method in brief: as §1
# HARA = test system: HARA
# Method in brief: as §1
# HCC-15 = test system: HCC-15
# Method in brief: as §1
# HCC-827 = test system: HCC-827
# Method in brief: as §1
# LC-2-ad = test system: LC-2-ad
# Method in brief: as §1
# LCLC-103H = test system: LCLC-103H
# Method in brief: as §1
# LOU-NH91 = test system: LOU-NH91
# Method in brief: as §1
# LU99A = test system: LU99A
# Method in brief: as §1
# NCI-H1355 = test system: NCI-H1355
# Method in brief: as §1
# NCI-H1666 = test system: NCI-H1666
# Method in brief: as §1
# NCI-H1755 = test system: NCI-H1755
# Method in brief: as §1
# NCI-H1993 = test system: NCI-H1993
# Method in brief: as §1
# NCI-H2085 = test system: NCI-H2085
# Method in brief: as §1
# NCI-H2170 = test system: NCI-H2170
# Method in brief: as §1
# NCI-H2228 = test system: NCI-H2228
# Method in brief: as §1
# NCI-H23 = test system: NCI-H23
# Method in brief: as §1
# NCI-H727 = test system: NCI-H727
# Method in brief: as §1
# PC-3 [JPC-3] = test system: PC-3 [JPC-3]
# Method in brief: as §1
# RERF-LC-KJ = test system: RERF-LC-KJ
# Method in brief: as §1
# SK-LU-1 = test system: SK-LU-1
# Method in brief: as §1
compound,measurement,setting,value
Nc1cccc2c1CN(C1CCC(=O)NC1=O)C2=O (stereo not drawn) [Lenalidomide] + CS(=O)(=O)N1CCN(Cc2cc3nc(-c4cccc5[nH]ncc45)nc(N4CCOCC4)c3s2)CC1 [Pictilisib] (partner 1 µM),relative viability,201T; first compound 0.253 µM,0.72
same,relative viability,201T; first compound 0.8 µM,0.532
same,relative viability,201T; first compound 2.53 µM,0.678
same,relative viability,201T; first compound 8 µM,0.603
same,relative viability,ABC-1; first compound 0.253 µM,0.724
same,relative viability,ABC-1; first compound 0.8 µM,0.626
same,relative viability,ABC-1; first compound 2.53 µM,0.719
same,relative viability,ABC-1; first compound 8 µM,0.629
same,relative viability,BEN; first compound 0.253 µM,0.69
same,relative viability,BEN; first compound 0.8 µM,0.504
same,relative viability,BEN; first compound 2.53 µM,0.644
same,relative viability,BEN; first compound 8 µM,0.436
same,relative viability,CAL-12T; first compound 0.253 µM,0.406
same,relative viability,CAL-12T; first compound 2.53 µM,0.561
same,relative viability,CAL-12T; first compound 8 µM,0.358
same,relative viability,H3255; first compound 0.253 µM,0.459
same,relative viability,H3255; first compound 0.8 µM,0.519
same,relative viability,H3255; first compound 2.53 µM,0.526
same,relative viability,H3255; first compound 8 µM,0.406
same,relative viability,HARA; first compound 0.253 µM,0.367
same,relative viability,HARA; first compound 0.8 µM,0.327
same,relative viability,HARA; first compound 2.53 µM,0.438
same,relative viability,HARA; first compound 8 µM,0.206
same,relative viability,HCC-15; first compound 0.253 µM,0.744
same,relative viability,HCC-15; first compound 2.53 µM,0.768
same,relative viability,HCC-15; first compound 8 µM,0.668
same,relative viability,HCC-827; first compound 0.253 µM,1.03
same,relative viability,HCC-827; first compound 0.8 µM,1.11
same,relative viability,HCC-827; first compound 2.53 µM,0.925
same,relative viability,HCC-827; first compound 8 µM,0.834
same,relative viability,LC-2-ad; first compound 0.253 µM,0.434
same,relative viability,LC-2-ad; first compound 0.8 µM,0.487
same,relative viability,LC-2-ad; first compound 2.53 µM,0.467
same,relative viability,LC-2-ad; first compound 8 µM,0.538
same,relative viability,LCLC-103H; first compound 0.253 µM,0.603
same,relative viability,LCLC-103H; first compound 0.8 µM,0.547
same,relative viability,LCLC-103H; first compound 2.53 µM,0.621
same,relative viability,LCLC-103H; first compound 8 µM,0.556
same,relative viability,LOU-NH91; first compound 0.253 µM,0.534
same,relative viability,LOU-NH91; first compound 0.8 µM,0.451
same,relative viability,LOU-NH91; first compound 2.53 µM,0.445
same,relative viability,LOU-NH91; first compound 8 µM,0.502
same,relative viability,LU99A; first compound 0.253 µM,0.31
same,relative viability,LU99A; first compound 0.8 µM,0.324
same,relative viability,LU99A; first compound 2.53 µM,0.371
same,relative viability,LU99A; first compound 8 µM,0.238
same,relative viability,NCI-H1355; first compound 0.253 µM,0.419
same,relative viability,NCI-H1355; first compound 0.8 µM,0.258
same,relative viability,NCI-H1355; first compound 2.53 µM,0.429
same,relative viability,NCI-H1355; first compound 8 µM,0.259
same,relative viability,NCI-H1666; first compound 0.253 µM,0.471
same,relative viability,NCI-H1666; first compound 0.8 µM,0.372
same,relative viability,NCI-H1666; first compound 2.53 µM,0.495
same,relative viability,NCI-H1666; first compound 8 µM,0.488
same,relative viability,NCI-H1755; first compound 0.253 µM,0.407
same,relative viability,NCI-H1755; first compound 0.8 µM,0.322
same,relative viability,NCI-H1755; first compound 2.53 µM,0.521
same,relative viability,NCI-H1755; first compound 8 µM,0.325
same,relative viability,NCI-H1993; first compound 0.253 µM,0.824
same,relative viability,NCI-H1993; first compound 0.8 µM,0.827
same,relative viability,NCI-H1993; first compound 2.53 µM,0.872
same,relative viability,NCI-H1993; first compound 8 µM,0.803
same,relative viability,NCI-H2085; first compound 0.253 µM,0.451
same,relative viability,NCI-H2085; first compound 0.8 µM,0.409
same,relative viability,NCI-H2085; first compound 2.53 µM,0.428
same,relative viability,NCI-H2085; first compound 8 µM,0.371
same,relative viability,NCI-H2170; first compound 0.253 µM,0.344
same,relative viability,NCI-H2170; first compound 0.8 µM,0.264
same,relative viability,NCI-H2170; first compound 2.53 µM,0.342
same,relative viability,NCI-H2170; first compound 8 µM,0.259
same,relative viability,NCI-H2228; first compound 0.253 µM,0.42
same,relative viability,NCI-H2228; first compound 0.8 µM,0.714
same,relative viability,NCI-H2228; first compound 2.53 µM,0.724
same,relative viability,NCI-H2228; first compound 8 µM,0.355
same,relative viability,NCI-H23; first compound 0.253 µM,0.372
same,relative viability,NCI-H23; first compound 0.8 µM,0.576
same,relative viability,NCI-H23; first compound 2.53 µM,0.523
same,relative viability,NCI-H23; first compound 8 µM,0.378
same,relative viability,NCI-H727; first compound 0.253 µM,0.418
same,relative viability,NCI-H727; first compound 2.53 µM,0.44
same,relative viability,NCI-H727; first compound 8 µM,0.306
same,relative viability,PC-3 [JPC-3]; first compound 0.253 µM,0.781
same,relative viability,PC-3 [JPC-3]; first compound 0.8 µM,0.609
same,relative viability,PC-3 [JPC-3]; first compound 2.53 µM,0.98
same,relative viability,PC-3 [JPC-3]; first compound 8 µM,0.734
same,relative viability,RERF-LC-KJ; first compound 0.253 µM,0.494
same,relative viability,RERF-LC-KJ; first compound 0.8 µM,0.46
same,relative viability,RERF-LC-KJ; first compound 2.53 µM,0.543
same,relative viability,RERF-LC-KJ; first compound 8 µM,0.534
same,relative viability,SK-LU-1; first compound 0.253 µM,0.602
same,relative viability,SK-LU-1; first compound 0.8 µM,0.58
same,relative viability,SK-LU-1; first compound 2.53 µM,0.704
same,relative viability,SK-LU-1; first compound 8 µM,0.502

# Reference: the supplement of paper PMC10307832
